Data reported in US8129426B2, “Water-soluble artemisinin derivatives, their preparation methods, the pharmaceutical compositions and the use thereof” (priority 2005, dated 2012).

Assays:
[1] = test system: T-cell proliferation (Con A); experiment: Lymphocyte proliferation test, T-cell proliferation stimulated with Con A; type: cell-based, Balb/c mice; parameters: concentration or dose not given beside the values; settings: concentration without any cytotoxicity; screened at 10, 1 and 0.1 μm
Procedure: (§1) Experimental animals: inbred Balb/c male mice, 6-8 weeks old.
(§2) RPMI-1640 culture solution (Roswell Park Memorial Institure-1640 medium, from GibcoBRL, Life Technologies, USA) with 10% fetal bovine serum (FBS), 100 U/mL penicillin, 100 μg/mL streptomycin, 10 mM HEPES (4-(2-hydroxyethyl)-1-piperazineethane sulfonic acid) and 50 μM 2-ME (2-Mercaptoethanol).
(§3) Stimulant: Concanavalin (ConA), and bacterial Lipopolysaccharide (LPS, from Escherichia Coli 055: B5), diluted with RPMI-1640 culture solution to suitable concentration before using.
(§4) [2] Lymphocyte Proliferation Test
(§5) 1) Mice were killed by cervical dislocation, and their spleens were collected aseptically and prepared into a single cell suspension. The cell concentration was adjusted to 4×10^6/mL with RPMI-1640 medium containing 10% FBS.
(§6) 2) 100 μL cell suspension, 50 μL testing sample solution, 50 μL ConA or LPS solution were added into a 96-well plate, and for the control group, 50 μL medium containing 10% FBS was added. The total volume was 200 μL.
(§7) 3) The cell culture was incubated in 5% CO2 incubator at 37 °C for 48 hours, and 0.5 μCi [^3H]-thymidine (25 μL/well) was added into each well 7-8 hours before the termination of the incubation.
(§8) 4) After the incubation was terminated, the cells were harvested on a glassfiber film with a cell harvestor (HARVESTER96®, TOMTEC), and after scintillation fluid was added, the incorporation of [^3H]-thymidine in the cell DNA was measured with a liquid scintillation counter (MicroBeta Trilux®, PerkinElmer) to indicate the state of cell proliferation.

[2] = test system: B-cell proliferation (LPS); experiment: Lymphocyte proliferation test, B-cell proliferation stimulated with LPS; type: cell-based, Balb/c mice; settings: concentration without any cytotoxicity; screened at 10, 1 and 0.1 μm
Procedure: as §1, §2, §3, §4, §5, §6, §7, §8

DTH mice = experiment: Delayed hypersensitive response animal model (DTH); type: in vivo; settings: for thickness difference of swelling on ears: FIG. 1, DTH mice; for weight difference of ear slices: FIG. 2, DTH mice
Procedure: [4] Delayed Hypersensitive Response Animal Model (DTH)
1) The sensitization was induced by topical application of 20 μL of 0.5% (v/v) DNFB in acetone: olive oil (4:1) onto each rear paw of mice on day 0 and 1;
2) Excipient and testing compounds were given by the oral route 1 day before challenge and then once a day for 2 days (days 8-10);
3) The mice were challenged by application of 10 μL of 0.5% (v/v) DNFB on the inner and outer surfaces of the right ear on day 9;
4) The increase in the ear patch weight (8-mm punches) and ear thickness between the left and right ear was measured 30-48 h after challenge.

[3] = test system: response lymphocytes in MLR; experiment: Homologous and heterogeneous mixed lymphocyte proliferation reaction (MLR); type: cell-based, C57BL/6 and Balb/c mice; settings: read-out: EC50, inhibition of proliferation of the response lymphocytes in MLR
Text: [3] Homologous and Heterogeneous Mixed Lymphocyte Proliferation Reaction (MLR)
1) C57BL/6 and Balb/c mice were killed by cervical dislocation, and their spleens were collected aseptically and levigated into a single cell suspension. After removing the erythrocytes, the cell concentration was adjusted to 6×10^6/mL with RPMI-1640 medium containing 10% FBS.
2) The spleen cells of C57BL/6 mice as the response cells and the spleen cells of Balb/c mice (irradiated with Co60, 3000 rads) as the stimulus cells were mixed in equal volumes.
3) 100 μL cell mixture, 100 μL testing sample were added into a 96-well plate. For the control group, 100 μL medium containing 10% serum was added. And single culture controls of the two kinds of cells were set.
4) The cell cultures were incubated in 5% CO2 incubator at 37 °C for 3, 4 or 5 days. 25 μL ^3H diluent (i.e. […] [^3H]-thymidine) was added one day before the termination of the incubation.
5) After the incubation was terminated, the plate was freezed in a −20[…] refrigerator.
6) The cells were harvested on a glassfiber film with a cell harvestor (HARVESTER96′, TOMTEC), and the incorporation of [^3H]-thymidine in DNA was measured with a liquid scintillation counter (MicroBeta Trilux®, PerkinElmer) to indicate the state of cell proliferation.

[4] = test system: mice arthritis induced by bovine collagen type II; experiment: Mice arthritis model induced by bovine collagen type II; type: in vivo, DBA/1 mice; settings: for scorings of the arthritis degree: FIG. 3 and FIG. 4, with and without the compound; for swelling of the mice' joints: oral, p<0.05

Compound | inhibiting rate to T-cell proliferation (Con A) [1] [%] | inhibiting rate to B-cell proliferation (LPS) [2] [%] | also measured
CC1CCC2C(C)C(OCC(O)CN3CCCCC3)OC3OC4(C)CCC1C32OO4 (stereo not drawn) [Example 12, 3′-piperidyl-2′-hydroxy-artemisinin propyl ether (β type)] | 47 | 47 | 
cyclosporine A [reference compound] |  |  | inhibiting rate of swelling of the ear of mice compared with the control group (DTH mice; 5 mg/kg): 40.6%
CC1CCC2C(C)C(OCC(O)CN)OC3OC4(C)CCC1C32OO4 (stereo not drawn) [Example 2, 3′-amino-2′-hydroxy-artemisinin propyl ether (β type)] | 48 | 48 | 
CC1CCC2C(C)C(OCC(O)CNC(C)(C)C)OC3OC4(C)CCC1C32OO4 (stereo not drawn) [Example 14, 3′-tert-butylamino-2′-hydroxy-artemisinin propyl ether (β type)] | 52 | 81 | EC50 [3]: 670 ± 12 nM; thickness difference of swelling on ears (DTH mice): obviously reduced the swelling degree on ears; weight difference of ear slices (DTH mice): obviously reduced the weight of swelling ears; inhibiting rate of swelling of the ear of mice compared with the control group (DTH mice; oral, 50 mg/kg, p<0.01): 52.2%; scorings of the arthritis degree [4]: can prevent and cure the mice arthritis induced by bovine collagen type II and inhibit the swelling of the sicked joints; swelling of the mice' joints ([4]; 0.5 mg/kg): obviously reduce the swelling of the mice' joints
CC1CCC2C(C)C(OCC(O)C(NC(C)(C)C)c3ccccc3)OC3OC4(C)CCC1C32OO4 (stereo not drawn) [Example 18, 3-phenyl-3′-tert-butylamino-2′-hydroxy-artemisinin propyl ether (β type)] | 9 | 26 | 
CC1CCC2C(C)C(OCC(O)C(c3ccccc3)N3CCCCC3)OC3OC4(C)CCC1C32OO4 (stereo not drawn) [Example 16, 3′-phenyl-3′-piperidyl-2′-hydroxy-artemisinin propyl ether (β type)] | 0 | 51 | 
CC1CCC2C(C)C(OCC(O)CN3CCCC3)OC3OC4(C)CCC1C32OO4 (stereo not drawn) [Example 11, 3′-pyrrolidinyl-2′-hydroxy-artemisinin propyl ether (β type)] | 48 | 99 | thickness difference of swelling on ears (DTH mice): obviously reduced the swelling degree on ears; weight difference of ear slices (DTH mice): obviously reduced the weight of swelling ears; inhibiting rate of swelling of the ear of mice compared with the control group (DTH mice; oral, 100 mg/kg, p<0.01): 50.5%
CC1CCC2C(C)C(OCC(O)C(c3ccccc3)N(C)C)OC3OC4(C)CCC1C32OO4 (stereo not drawn) [Example 17, 3′-phenyl-3′-dimethylamino-2′-hydroxy-artemisinin propyl ether (β type)] | 6 | 24 | 
CC1CCC2C(C)C(OCC(O)C(N)c3ccccc3)OC3OC4(C)CCC1C32OO4 (stereo not drawn) [Example 8, 3′-phenyl-3′-amino-2′-hydroxy-artemisinin propyl ether (β type)] | 13 | 42 | 
CC1CCC2C(C)C(OCCN)OC3OC4(C)CCC1C32OO4 (stereo not drawn) [Example 1, 2′-amino arteether (β type)] | 65 | 73 | EC50 [3]: 3480 ± 720 nM; thickness difference of swelling on ears (DTH mice): obviously reduced the swelling degree on ears; weight difference of ear slices (DTH mice): obviously reduced the weight of swelling ears; inhibiting rate of swelling of the ear of mice compared with the control group (DTH mice; oral, 50 mg/kg, p<0.01): 56.5%; scorings of the arthritis degree [4]: can prevent and cure the mice arthritis induced by bovine collagen type II and inhibit the swelling of the sicked joints; swelling of the mice' joints ([4]; 1 mg/kg): obviously reduce the swelling of the mice' joints
CNCC(O)COC1OC2OC3(C)CCC4C(C)CCC(C1C)C24OO3 (stereo not drawn) [Example 3, 3′-methylamino-2′-hydroxy-artemisinin propyl ether (β type)] | 47 | 51 | 
